Source: patent US12396995B2, “Substituted 4-aminoisoindoline-1,3-dione compounds and second active agents for combined use” (Celgene Corporation, priority 2019, dated 2025)

Assays:
Assay type in all cases: in vivo, female SCID mice
[1] = test system: WSU-DLCL2 DLBCL xenograft tumors; experiment: WSU-DLCL2 (DLBCL) xenograft model, Compound 1 alone and with 5-azacytidine
Procedure: Anti-tumor activity of Compound 1 alone and in combination with 5-azacytidine was studies in WSU-DLCL2 (DLBCL) xenograft model. Compound 1 (1 mg/kg) was administered once daily for 5 consecutive days followed by 2 days off (5 D on/2 D off) and 5-azacytidine (1 mg/kg) was administered once daily (QD). Compound 1 (1 mg/kg, 5 D on/2 D off) and 5-azacytidine (1 mg/kg, QD) inhibited WSU-DLCL2 DLBCL tumor growth.
Methods: Xenograft study was conducted with female SCID mice bearing WSU-DLCL2 DLBCL xenograft tumors. Female SCID mice were inoculated subcutaneously with WSU-DLCL2 cells in the flank region above the right hind leg. Following inoculation of animals, the tumors were allowed to grow to approximately 200 mm^3 prior to randomization. On day 14 following tumor cell inoculation, the mice bearing WSU-DLCL2 tumors ranging between 150 and 250 mm^3 were pooled together and randomized into various treatment groups. Compound 1 was formulated in 0.5% Methyl Cellulose, 0.25% Tween 80 and 50 mM Citrate pH 3 in water. 5-Azacytidine was formulated in 0.9% saline. Compound 1 (1 mg/kg) was orally administered with three cycles of once daily for 5 consecutive days followed by 2 days off starting from day 14 after tumor cell inoculation. […] Tumors were measured twice a week using calipers and tumor volumes were calculated using the formula of W^2×L/2. […]

[2] = test system: WSU-DLCL2 DLBCL xenograft tumors; experiment: WSU-DLCL2 (DLBCL) xenograft model, Compound 1 alone and with tazemetostat
Procedure: (§1) Anti-tumor activity of Compound 1 alone and in combination with tazemetostat was studied in WSU-DLCL2 (DLBCL) xenograft model. Compound 1 (1 mg/kg) was administered once daily for 5 consecutive days followed by 2 days off (5 D on/2 D off) and tazemetostat (200 mg/kg) was administered twice daily (BID).
(§2) Methods: Xenograft study was conducted with female SCID mice bearing WSU-DLCL2 DLBCL xenograft tumors. Female SCID mice were inoculated subcutaneously with WSU-DLCL2 cells in the flank region above the right hind leg. Following inoculation of animals, the tumors were allowed to grow to approximately 200 mm^3 prior to randomization. On day 14 following tumor cell inoculation, the mice bearing WSU-DLCL2 tumors ranging between 150 and 250 mm^3 were pooled together and randomized into various treatment groups. Compound 1 was formulated in 0.5% Methyl Cellulose, 0.25% Tween 80 and 50 mM Citrate pH 3 in water. Tazemetostat was formulated in CMC-Tween. Compound 1 (1 mg/kg) was orally administered with three cycles of once daily for 5 consecutive days followed by 2 days off starting from day 14 after tumor cell inoculation. Tazemetostat 200 mg/kg) was orally administered twice day (BID) for three weeks. In combination group the animals received Compound 1 (1 mg/kg/5 D on/2 D off) and tazemetostat (200 mg/kg, BID) simultaneously for three weeks starting from day 14 after tumor cell inoculation. Tumors were measured twice a week using calipers and tumor volumes were calculated using the formula of W^2×L/2. Statistical analysis was performed using a one-way or 2-way analysis of variance (ANOVA). Synergy calculations were performed using fractional product method.

[3] = test system: DB DLBCL xenograft tumors; experiment: DB (DLBCL) xenograft model, Compound 1 alone and with tazemetostat; settings: for tumor volume reduction: 5 D on/2 D off
Procedure: as §1, with “DB” for “WSU-DLCL2”, “(3, 10 or 30” for “(1”
as §2, with “bearing DB” for “bearing WSU-DLCL2”, “with DB” for “with WSU-DLCL2”, “day 33” for “day 14”, “1 (3, 10 or 30” for “1 (1”, “Tazemetostat (200” for “Tazemetostat 200”, “1 (3, 10 or 30 mg/kg, 5” for “1 (1 mg/kg/5”

Compound: O=C1CC[C@H](N2C(=O)c3cccc(NCc4ccc(CN5CC(N6CCOCC6)C5)cc4F)c3C2=O)C(=O)N1 [Compound 1, (S)-2-(2,6-dioxopiperidin-3-yl)-4-((2-fluoro-4-((3-morpholinoazetidin-1-yl)methyl)benzyl)amino)isoindoline-1,3-dione]
- combination antitumor activity (fractional product method) ([1]; Compound 1 1 mg/kg and 5-azacytidine 1 mg/kg): synergistic
- tumor volume reduction compared to vehicle control ([1]; Compound 1 1 mg/kg in combination with 5-azacytidine 1 mg/kg): 74%
- combination antitumor activity (fractional product method) ([2]; Compound 1 1 mg/kg and tazemetostat 200 mg/kg): synergistic
- tumor volume reduction compared to vehicle control ([2]; Compound 1 1 mg/kg in combination with tazemetostat 200 mg/kg): 93.7%
- inhibition of tumor growth ([2]; single agent Compound 1 1 mg/kg oral, 5 D on/2 D off, three cycles): −45.6%
- tumor volume reduction compared with vehicle control ([3]; Compound 1 3 mg/kg in combination with tazemetostat 200 mg/kg): 99.1%
- tumor volume reduction compared with vehicle control ([3]; Compound 1 10 mg/kg in combination with tazemetostat 200 mg/kg): 100%
- tumor volume reduction compared with vehicle control ([3]; Compound 1 30 mg/kg in combination with tazemetostat 200 mg/kg): 100%
- combination antitumor activity (fractional product method) ([3]; Compound 1 at 3, 10 or 30 mg/kg and tazemetostat at 200 mg/kg): synergistic
- tumor volume reduction ([3]; single agent Compound 1 3 mg/kg oral): 16.9%
- tumor volume reduction ([3]; single agent Compound 1 10 mg/kg oral): 41.11%
- tumor volume reduction ([3]; single agent Compound 1 30 mg/kg oral): 48.9%
- animals tumor free ([3]; tazemetostat in combination with 3 mg/kg Compound 1): 90%
- animals tumor free ([3]; tazemetostat in combination with 10 mg/kg Compound 1): 100%
- animals tumor free ([3]; tazemetostat in combination with 30 mg/kg Compound 1): 100%
